Reference: article PMC4129416, “YLT192, a Novel, Orally Active Bioavailable Inhibitor of VEGFR2 Signaling with Potent Antiangiogenic Activity and Antitumor Efficacy in Preclinical Models” (Scientific Reports, 2014)

Columns and labels:
[1] = cited from earlier work; for toxicities after single doses: rat, in vivo; for maximal tolerance dose (MTD): rats, ref http://www.accessdata.fda.gov/drugsatfda
HUVEC [2] = assay: Wound healing migration assay; format: cell-based, human; conditions: various concentrations; 24 hours
From the text: (§1) Cell migration is essential for ECs in angiogenesis and for cancer cells in tumor growth and metastasis. […] Cell invasion is essential for EC in angiogenesis, so we performed transwell assays to evaluate the ability of HUVEC to pass through the Matrigel and membrane barriers of the transwell in the presence of various concentrations of YLT192 or vehicle.
Figure 2 Effects of YLT192 on HUVECs proliferation, migration, invasion and tube formation. […] Cells were wounded by the pipette and then treated with various concentrations of compounds for 24 hours. Migrated cells were quantified by manual counting (50×). […] The bottom chambers of the transwells were filled with 600 μL EGM2 containing various growth factors while the top chambers were seeded with 4 × 10^4 HUVECs in EBM2 and treated with different concentrations of compounds for 24 hours. Cells invaded through the membrane were stained and quantified (100×). […] HUVECs were seeded on Matrigel layer and treated with different concentrations of compounds. HUVECs tube formation was assessed 6 hours later (50×). One representative experiment of three is shown. For (A), (B) and (C), data represent the mean ± SEM of three different experiments. Each experiment was performed in duplicate.*P < 0.05, **P < 0.01. (D) YLT192 inhibited VEGF-induced phosphorylation of VEGFR2 and its downstream signal regulator p44/42 MAPK, STAT3 and AKT in HUVECs. One representative Western blot of three is presented. Each has the expression of β-actin as internal control. The full size blots were shown in the Supplemental Figure S5 online. (E) Cellular thermal shift assay showing VEGFR2 target engagement by YLT192 in intact HUVECs. One representative Western blot of two is presented. The full size blots were shown in the Supplemental Figure S6 online. […]
(§2) HUVECs were allowed to grow into full confluence in 24-well plates and then wounded by scratching with pipette tips and washed with PBS. […] Images were taken using a ZEISS digital microscope and invading cells were counted by manual counting. […]

HUVEC [3] = assay: Transwell invasion assay; format: cell-based, human; conditions: various concentrations; 24 hours; concentration-dependent
From the text: as §1
Figure 2 Effects of YLT192 on HUVECs proliferation, migration, invasion and tube formation. […] Cells were wounded by the pipette and then treated with various concentrations of compounds for 24 hours. Migrated cells were quantified by manual counting (50×). […] The bottom chambers of the transwells were filled with 600 μL EGM2 containing various growth factors while the top chambers were seeded with 4 × 10^4 HUVECs in EBM2 and treated with different concentrations of compounds for 24 hours. Cells invaded through the membrane were stained and quantified (100×). […] HUVECs were seeded on Matrigel layer and treated with different concentrations of compounds. HUVECs tube formation was assessed 6 hours later (50×). One representative experiment of three is shown. […]
as §2

HUVEC [4] = assay: Capillary-like tube formation assay; format: cell-based, human; conditions: designed concentrations; 6 hours; Matrigel
Description: To elucidate the possible mechanisms of angiogenesis inhibition, tube formation ability of ECs, which is a critical step in the process of angiogenesis, was assessed in HUVEC in vitro.
The anti-angiogenesis ability of YLT192 in vitro was evaluated using capillary tube formation assay as described previously. Briefly, 96-well plate was pre-incubated with Matrigel at 37°C for 45 minutes. Then HUVECs (2 × 10^4 cells) suspended in EGM2 medium were seeded onto the Matrigel. They were treated with various concentrations of YLT192. After 6 hours incubation at 37°C, tube formation was assessed with an OLYMPUS inverted digital camera in low power fields (50×). Vandetanib served as positive control. The assay was replicated 3 times.

Row | SMILES | toxicities after single doses [1] | maximal tolerance dose (MTD) [1] [mg/kg] | HUVECs migration in wound healing assay (HUVEC [2]) | invasion of HUVECs in transwell assay (HUVEC [3]) | tube formation of HUVEC (HUVEC [4])
1 | CCN(CC)CCNC(=O)c1c(C)[nH]c(/C=C2\C(=O)Nc3ccc(F)cc32)c1C [sunitinib] | toxicities in the gastrointestinal tract and liver | 500 | – | – | –
2 | CNC(=O)c1cc(Oc2ccc(NC(=O)Nc3ccc(Cl)c(C(F)(F)F)c3)cc2)ccn1 [sorafenib] | toxicities in the gastrointestinal tract and liver | 500 | – | – | –
3 | COc1cc2c(Nc3ccc(Br)cc3F)ncnc2cc1OCC1CCN(C)CC1 [Vandetanib, reference compound] | – | – | inhibited HUVECs migration | inhibted HUVECs invasion | inhibited HUVECs tube formation
